ChEMBL document CHEMBL1127257, “Ca2+-ATPase inhibitory activity of a locked analogue of thapsigargin” (Bioorg Med Chem Lett, 1994)

Species: Bos taurus
Test: Inhibitory effect by measuring the ATP-dependent [Ca2+] uptake in membranes isolated from bovine cerebellum
Type: functional

Row | Compound | IC50 | IC50 (Bos taurus, Cerebellum)
1 | C/C=C(/C)C(=O)O[C@H]1C(C)=C2[C@H]([C@@H]1OC(=O)CCCCCCC)[C@@](C)(OC(C)=O)C[C@H](OC(=O)CCC)[C@@]1(O)[C@H]2OC(=O)[C@@]1(C)O [THAPSIGARGIN] | 170 pM | –
2 | CC=C(C)C(=O)O[C@H]1C(C)=C2[C@H]([C@@H]1OC(=O)CCCCCCC)[C@@](C)(OC(C)=O)C[C@H](OC(=O)CCC)[C@@]1(O)[C@H]2OC(=O)[C@@]1(C)O [THAPSIGARGIN] | – | 264 pM
3 | C/C=C(\C)C(=O)O[C@H]1C(C)=C2[C@H]([C@@H]1OC(=O)CCCCCCC)[C@@](C)(OC(C)=O)C[C@H](OC(=O)CCC)[C@@]1(O)[C@H]2OC[C@@]1(C)O | – | 180 pM
